Experimental data taken from paper PMC10892836, “Hybrid Molecules of Azithromycin with Chloramphenicol and Metronidazole: Synthesis and Study of Antibacterial Properties” (Pharmaceuticals, 2024).
Values after ≈ are worked out from the molar mass of the structure shown.

Assays:
[1] = system: Escherichia coli ATCC 25922; test: MIC, broth microdilution (CLSI); assay type: cell-based; conditions: ATCC25922, E. coli ATCC 25922
Method: (§1) Minimum inhibitory concentration (MIC) values for facultative anaerobic bacteria were determined using the broth microdilution method outlined in the CLSI guidelines. Initially, all compounds were dissolved in dimethyl sulfoxide (DMSO) to achieve a concentration of 10 mg/mL. Subsequently, they were diluted with the Mueller–Hinton nutrient broth (MHB) supplemented with 5% defibrinated horse blood (for Streptococcus spp.) to a concentration of 64 μg/mL. Following 2-fold serial dilutions of the substances, bacterial cultures in the log growth phase were added to 96-well plates at a concentration of 2.5–5 × 10^5 CFU/mL, and the plates were incubated at 37 °C for 16–20 h.
(§2) Minimum inhibitory concentration (MIC) was defined as the lowest concentration of a chemical compound that inhibits the visible growth of the bacterial strain. At least three replicates of MIC measurements were performed.

[2] = system: Staphylococcus aureus ATCC 29213; test: MIC, broth microdilution (CLSI); assay type: cell-based; conditions: ATCC29213, S. aureus ATCC 29213
Method: as §1, §2

[3] = system: Streptococcus agalactiae 1Cp; test: MIC, broth microdilution (CLSI); assay type: cell-based; conditions: S. agalactiae 1Cp
Method: as §1, §2

[4] = system: Streptococcus pneumoniae ATCC 49619; test: MIC, broth microdilution (CLSI); assay type: cell-based
Method: as §1, §2

[5] = system: Clostridium sporogenes ATCC 19404; test: MIC, agar dilution, anaerobic bacteria (CLSI M11-A9); assay type: cell-based; conditions: ATCC19404, C. sporogenes ATCC 19404, anaerobic
Method: The antimicrobial activity against anaerobic bacteria was evaluated using the agar dilution method in accordance with the CLSI document M11-A9 [58]. Twofold serial dilutions of compounds, at 10 times the desired concentration, were prepared in water and diluted (1:10) with the Brucella Agar medium containing 5% defibrinated horse blood, 5 mg/L hemin, and 1 mg/L vitamin K. The resulting plates were inoculated with approximately 10^5 CFU per spot using a replicator and incubated anaerobically at 36 °C for 48 h.
as §2

[6] = system: Propionibacterium acnes 55; test: as above; assay type: cell-based; conditions: Cutibacterium acnes; P. acnes 55, anaerobic clinical isolate
E. coli ΔtolC pERMZα = test: MIC, broth microdilution, E. coli ΔtolC panel; assay type: cell-based; conditions: Escherichia coli
Method: (§3) The E. coli ΔtolC strain was also transformed with the pErmC, pErmCL-ErmC, and pERMZα plasmids. The resulting strains were grown at 37 °C in LB medium supplied with 100 μg/mL ampicillin.
(§4) MIC values for a panel of E. coli ΔtolC strains were determined via the broth microdilution assay as described here with minor modifications. Briefly, the overnight E. coli culture was diluted to an OD600 of 0.01 in the fresh LB medium supplied with 100 μg/mL ampicillin, if required. Then, the cells were additionally incubated for 1–1.5 h at 37 °C with shaking at 200 rpm (Shaker-Incubator ES-20/80, BioSan, Riga, Latvia). Meanwhile, 100 μL of the liquid growth medium was placed in each well of a 96-well sterile plate (200 μL was placed in column 1). Solutions of tested compounds were added in the first column of the plate at 2 times the final concentration of 200 μg/mL. Then, 2-fold serial dilutions were performed. Immediately before use, bacterial inoculum was diluted (1:100) in the growth medium, and 100 μL of it was transferred in each well except for the sterility control column. The plate was incubated overnight (16–20 h) at 37 °C with constant shaking at 200 rpm (Shaker-Incubator ES-20/80, BioSan, Riga Latvia). Cell growth was assessed by scanning the OD600 with a VICTOR X5 Multilabel Plate Reader (PerkinElmer, Waltham, MA, USA).
as §2

E. coli ΔtolC pErmC = test: MIC, broth microdilution, E. coli ΔtolC panel; assay type: cell-based; conditions: Escherichia coli
Method: as §3, §4, §2

[7] = system: E. coli ΔtolC pErmCL-ErmC; test: MIC, broth microdilution, E. coli ΔtolC panel; assay type: cell-based; conditions: for MIC: Escherichia coli
Method: In order to create the construct pErmCL-ErmC, the vector backbone was amplified using pZa-fwd (5′-TAAGAATTCTCTAGCCCG-3′) and pZa-rev (5′-[…]-3′) primers, and the pERMZα plasmid as a template. The ermC gene was amplified from the pERMCTP plasmid with ErmC-fwd (5′-[…]-3′) and ErmC-rev (5′-TAGGCGGGCTAGAGAATTC-3′) primers. The joining of two DNA fragments was performed using the NEBuilder® HiFi DNA Assembly Master Mix (New England Biolabs, Ipswich, MA, USA). Sequences of intermediate products and the final construct were confirmed by Sanger sequencing with appropriate primers.
as §3, §4, §2

E. coli ΔtolC = test: MIC, broth microdilution, E. coli ΔtolC panel; assay type: cell-based; conditions: Escherichia coli
Source text: The E. coli JW5503 strain with a deletion of the tolC gene (referred to here as E. coli ΔtolC) was kindly provided by Prof. Hironori Niki, National Institute of Genetics, Japan. The E. coli BW25113 strain with a partial deletion of the lptD gene, codons 330 to 352 (referred to here as E. coli lptD^mut) was kindly provided by Prof. Alexander S. Mankin, University of Illinois, Chicago, IL, USA [44]. The E. coli ΔtolC strain was transformed with the pDualrep2 (Amp^R) plasmid, whereas the E. coli lptD^mut strain was transformed with the pDualrep2 (Kan^R) plasmid (not yet published). Both E. coli strains were grown at 37 °C in Luria–Bertani (LB) medium supplemented with either 100 μg/mL ampicillin or 50 μg/mL kanamycin.
as §4, §2

[8] = system: Streptococcus pneumoniae ATCC 6305; test: MIC, broth microdilution (CLSI); assay type: cell-based; conditions: ATCC6305, S. pneumoniae ATCC 6305, Table S3
Method: To evaluate the antimicrobial activity of hybrid molecules, clinical and reference strains obtained from the Laboratory of Medical Microbiology of the State Scientific Center of Antibiotics (Moscow, Russia) were used. The activity of azithromycin derivatives conjugated with chloramphenicol was tested on the following reference strains: Streptococcus pneumoniae ATCC 49619, Staphylococcus aureus ATCC 29213, and Escherichia coli ATCC 25922. Additionally, azithromycin derivatives conjugated with metronidazole were tested on the Streptococcus agalactiae 1Cp strain, Streptococcus pneumoniae ATCC 6305 strain (see Table S3, Supplementary Materials), on the anaerobic Gram-positive Clostridium sporogenes ATCC 19404 strain, and Propionibacterium acnes 55 clinical isolate.
as §1, with “Following 2-fold serial dilutions of the substances, bacterial cultures in the log growth phase were added to 96-well plates at a concentration of 2.5–5 × 10^5 CFU/mL, and the plates were incubated at 37 °C for 16–20 h.” left out

[9] = system: cell-free bacterial translation system based on the E. coli S30 lysate; test: In vitro translation in a cell-free bacterial system (firefly luciferase synthesis); assay type: biochemical; conditions: final concentration 5 μM; water control = 100%
Method: The inhibition of firefly luciferase (Fluc) synthesis by new azithromycin derivatives was assessed with the E. coli S30 Extract System for Linear Templates (Promega, Madison, WI, USA). Each reaction (5 μL total volume) was supplied with 0.1 mM mixture of all canonical amino acids, 4 U of RiboLock RNase Inhibitor (Thermo Fisher Scientific, Waltham, MA, USA), 0.1 mM of D-luciferin (Sigma-Aldrich, Burlington, MA, USA), 50 ng of firefly luciferase (Fluc) mRNA, and a chemical compound at a final concentration, as indicated in the main text, or nuclease-free water instead. Before the addition of mRNA, reaction tubes were pre-incubated at RT for 5 min and then placed back on ice. After the addition of mRNA, reaction mixtures were immediately subjected to continuous chemiluminescence measurement using the VICTOR X5 Multilabel Plate Reader (PerkinElmer, Waltham, MA, USA) at 37 °C for 30 min. Maximal rates of the firefly luciferase (Fluc) accumulation were calculated using the OriginPro 7.5 software. The values were normalized to a positive control (nuclease-free water, assigned a value of 100%). The results were visualized using the QtiPlot software (version 0.9.8.9).

70S E. coli ribosomes = test: Competition-binding assay with BODIPY-ERY (fluorescence anisotropy); conditions: displacement of BODIPY-ERY; means, 95% confidence intervals; read-out: Apparent dissociation constant KD
Method: Affinity of compounds to the 70S E. coli ribosomes (isolated from the E. coli MRE600 strain according to a published procedure) was evaluated with a competition-binding assay using fluorescently labeled erythromycin (BODIPY-ERY) as described earlier. Briefly, BODIPY-ERY (16 nM) was mixed with ribosomes (34 nM) in 384-well plates in the buffer containing 20 mM HEPES-KOH (pH 7.5), 50 mM NH4Cl, 10 mM Mg(CH3CO2)2, 4 mM β-mercaptoethanol, and 0.05% (v/v) Tween-20. Solutions of the tested compounds were added to the obtained complexes to final concentrations from 1 to 1000 nM and incubated for 2 h at 30 °C. The values of fluorescence anisotropy were obtained using the VICTOR X5 Multilabel Plate Reader (PerkinElmer, Waltham, MA, USA). Filters of 485 and 535 nm were used for excitation and emission, respectively. To calculate the apparent dissociation constants, the assumption that the competitive equilibrium binding of two ligands occurs at a single binding site was used. For each compound, at least 2 replicates were performed. Values of apparent dissociation constants are given as means with 95% confidence intervals. The results were visualized using the GraphPad Prism software (version 8.0.1).

[10] = system: ribosome stalling on ermCL mRNA; test: Toe-printing (primer extension inhibition) analysis on ermCL mRNA; assay type: biochemical; conditions: 50 μM (chloramphenicol 30 μM)
Method: The toe-printing (primer extension inhibition) analysis of azithromycin derivatives was carried out essentially as previously described with some minor modifications, as indicated below. The DNA template ErmCL was generated by PCR using two overlapping primers, ErmCL-fwd (5′-[…]-3′) and ErmCL-rev (5′-[…]-3′). Before the addition of the DNA template to reaction mixtures at the in vitro translation step, tubes were pre-incubated at RT for 5 min. Moreover, phenol-chloroform extraction of reverse transcription products was replaced with DNA purification using the QIAquick® PCR Purification Kit (Qiagen, Hilden, Germany) according to the manufacturer’s protocol.
Figure 4 Toe-printing (or primer extension inhibition) analysis of azithromycin derivatives on ermCL mRNA. Ribosome stalling is detected via reverse transcription in a cell-free bacterial transcription–translation coupled system. The toe-printing bands are marked with colored arrowheads, and the A-site codons (except for the start codon, P-site codon is indicated) occupied by the stalled ribosomes are indicated in the mRNA sequence with the corresponding colors. The stop codon is marked with an asterisk. All compounds but chloramphenicol (CLM) were tested at 50 μM. Chloramphenicol (CLM) was tested at 30 μM. DMSO was used as a negative control at 0.25% final concentration. Thiostrepton (THS) was used to indicate the translation start site.

[11] = ATCC49619, S. pneumoniae ATCC 49619, Tables 2 and 3

Work on `CC[C@H]1OC(=O)[C@H](C)[C@@H](O[C@H]2C[C@@](C)(OC)[C@@H](O)[C@H](C)O2)[C@H](C)[C@@H](O[C@@H]2O[C@H](C)C[C@H](N(C)C)[C@H]2O)[C@](C)(O)C[C@@H](C)CN(C)[C@H](C)[C@@H](O)[C@]1(C)O` [AZT, azithromycin] yielded an MIC [1] of 2 µg/mL (≈ 2.67 µM), an MIC [2] of 0.5 µg/mL (≈ 0.668 µM) and an MIC ([3]; Table 3) of 0.015 µg/mL (≈ 0.02 µM). For the same compound, the MIC ([3]; Table S3, comparison with 2′-O-deacetyl metabolites) was 0.03 µg/mL, the MIC ([4]; ATCC49619, S. pneumoniae ATCC 49619, Table S3, comparison with 2′-O-deacetyl metabolites) was 0.03 µg/mL and the MIC [4, 11] was 0.06 µg/mL (≈ 0.0801 µM). For the same compound, the MIC [5] was 4 µg/mL (≈ 5.34 µM), the MIC [6] was less than 0.06 µg/mL and the MIC (E. coli ΔtolC pERMZα) was 0.8 µg/mL (≈ 1.07 µM). For the same compound, the MIC (E. coli ΔtolC pErmC) was greater than 200 µg/mL, the “Fold increase in the MIC value on E. coli ΔtolC pErmCL-ErmC compared to E. coli ΔtolC” value [7] was 4 fold and the MIC [7] was 3.1 µg/mL (≈ 4.14 µM). The MIC (E. coli ΔtolC) was 0.8 µg/mL (≈ 1.07 µM), the MIC [8] was 0.03 µg/mL (≈ 0.0401 µM) and the “Relative luciferase activity (relative maximal rate of Fluc accumulation)” value [9] was 0.3%. For the same compound, the Kd (70S E. coli ribosomes) was 0.4 ± 0.1 nM and the “Ribosome stalling pattern on ermCL mRNA” value [10] was “induces ribosome stalling when GUA (Val) or AGC (Ser) codons enter the A-site of the ribosome”.
For `O=C(N[C@H](CO)[C@H](O)c1ccc([N+](=O)[O-])cc1)C(Cl)Cl` [CLM, Chloramphenicol], the MIC [1] was 8 µg/mL (≈ 24.8 µM), the MIC [2] was 8 µg/mL (≈ 24.8 µM) and the MIC [4, 11] was 4 µg/mL (≈ 12.4 µM). For the same compound, the MIC (E. coli ΔtolC pERMZα) was 1.6 µg/mL (≈ 4.95 µM), the MIC (E. coli ΔtolC pErmC) was 1.6 µg/mL (≈ 4.95 µM) and the “Fold increase in the MIC value on E. coli ΔtolC pErmCL-ErmC compared to E. coli ΔtolC” value [7] was “no changes in the MIC values”. The MIC [7] was 1.6 µg/mL (≈ 4.95 µM), the MIC (E. coli ΔtolC) was 1.6 µg/mL (≈ 4.95 µM) and the “Relative luciferase activity (relative maximal rate of Fluc accumulation)” value [9] was 21%. For the same compound, the “Ribosome stalling pattern on ermCL mRNA” value [10] was “strong ribosome stalling when the Ser codon (AGU) occupies the E-site of the ribosome”.
